Source: article PMC4942689, “Deciphering the function of the CNGB1b subunit in olfactory CNG channels” (Scientific Reports, 2016)
Where “and” joins values, the source holds several entries; their conditions need not be identical. Equal values may be shown once. Read-outs that look alike come from different tables or passages of the source.

Key:
CNGA2RE:A4RE:B1b [1] = molecular target: T1, CNGA2RE:A4RE:B1b (Rattus norvegicus, UniProt A0A8I5ZN27+Q00195+Q64359, R430E/R538E); test: Concentration-activation relationship and activation by fluorescent ligands, patch-clamp; type: biochemical
T1 construct: expressed in transfected cells; host or cells: Xenopus laevis oocytes (cRNA injection), excised inside-out patches
Procedure: In order to determine the apparent affinity of the modulatory subunits in heterotetrameric CNGA2:A4:B1b channels for cGMP, we coexpressed each of them with disabled neighbored subunits, generating themselves activation effects only at much higher ligand concentrations. In case of two well-separated current components, this would allow us to determine the EC50 value for the CNGB1b and CNGA4 subunit in functional heterotetrameric channels. Patch-clamp experiments were performed using an Axopatch 200B amplifier (Molecular Devices LLC, CA, U.S.A.) in the inside-out configuration. The patch pipettes for recording of macroscopic currents were pulled from borosilicate glass tubing (outer diameter 2.0 mm, inner diameter 1.0 mm; Hilgenberg GmbH, Germany). […] The patches were formed as pushed inside-out patches. […] Cyclic nucleotide concentration jumps were performed using a double-barreled glass pipette mounted on a piezo-driven device. Intracellular (bath) and extracellular (pipette) solutions contained (mM) 150 KCl, 1 EGTA, 5 Hepes, pH = 7.4 with KOH. […] Currents in the absence of the cyclic nucleotide were subtracted. All patches included in this study were first tested for channel expression in the presence of a saturating ligand concentration. Only patches with large current, i.e. a large number of channels, were included in our statistics. The currents were measured at +10 mV or, if mentioned, at +100 mV. Fits of equations to data points were performed with the 8.1G® software (OriginLab Corporation, Northampton, U.S.A.). Concentration-activation relationships were obtained by relating the actual current amplitude, I, to the maximum current amplitude elicited by a saturating concentration of ligand, Imax, and plotting this ratio as function of the ligand concentration, x.

CNGA2RE:A4RE:B1b [2] = molecular target: T1, CNGA2RE:A4RE:B1b; test: Ligand binding, confocal patch-clamp fluorometry; design: key to Ligand binding to CNGA4 / Ligand binding to CNGB1b: +: ligand binding to the respective modulatory subunits was either observed or not; −: ligand binding to the respective modulatory subunits was either observed or not
Excerpt: (§1) The channels to be studied were expressed in Xenopus oocytes. We first tested the subunit composition in our channels when coexpressing different combinations of subunits by single-channel recordings. For CNGA2:A4, CNGA2:B1b and CNGA2:A4:B1b channels we exclusively obtained the specific and easily distinguishable single-channel activity reported earlier when injecting respective amounts of RNA[7][13]. We therefore assumed that the channels formed had always the expected subunit composition. The specific binding of cyclic nucleotides and the activation of the CNG channels were measured in parallel by means of confocal patch-clamp fluorometry in excised patches, using fluorescent cyclic nucleotide derivatives. The method has been described previously.
(§2) To verify the hypothesis that the CNGB1b subunit in CNGA2:A4:B1b channels binds cyclic nucleotides, we coexpressed CNGB1b with CNGA4RE and either CNGA2RE or CNGA2TM and measured ligand binding in the presence of 10 μM fcGMP. […] To verify the specificity of the binding to the CNGB1b subunit in these heterotetrameric channels, we coexpressed the CNGB1bRE subunit with CNGA2RE and CNGA4RE.
(§3) The ligand binding was measured in macropatches by patch-clamp fluorometry[41][42] combined with confocal microscopy. […] Recordings were performed with an LSM 510 or 710 confocal microscope (Zeiss, Jena, Germany) and were triggered by the ISO3 software (MFK, Niedernhausen, Germany). To distinguish between the fluorescence of the unbound ligands from that of the bound ligands, a second dye, DY647 (Dyomics, Jena, Germany), was added to the bath solution. The 543-nm and 633-nm lines of a He-Ne laser were used to excite fcAMP/fcGMP and DY647, respectively. The method of confocal patch-clamp fluorometry has been described in detail previously.

CNGA2RE:A4RE:B1bRE = molecular target: T2, CNGA2RE:A4RE:B1bRE (Rattus norvegicus, UniProt A0A8I5ZN27+Q00195+Q64359, R1106E/R430E/R538E); test: Ligand binding, confocal patch-clamp fluorometry; design: key to Ligand binding to CNGA4 / Ligand binding to CNGB1b: +: ligand binding to the respective modulatory subunits was either observed or not; −: ligand binding to the respective modulatory subunits was either observed or not
T2 construct: expressed in transfected cells; host or cells: Xenopus laevis oocytes (cRNA injection), excised inside-out patches
Excerpt: as §1, §2, §3

CNGA2TM:A4RE:B1b = molecular target: T3, CNGA2TM:A4RE:B1b (Rattus norvegicus, UniProt A0A8I5ZN27+Q00195+Q64359, R430E/T539M); test: Ligand binding, confocal patch-clamp fluorometry; design: key to Ligand binding to CNGA4 / Ligand binding to CNGB1b: +: ligand binding to the respective modulatory subunits was either observed or not; −: ligand binding to the respective modulatory subunits was either observed or not
T3 construct: expressed in transfected cells; host or cells: Xenopus laevis oocytes (cRNA injection), excised inside-out patches
Excerpt: as §1, §2, §3

[3] = test system: homotetrameric CNGA2TM (T539M) channels; conditions: cited from earlier work
[4] = test system: concatameric homotetrameric CNGA2 channels with three disabled subunits; design: method as in PMID 26858151; conditions: read-out: EC50 of one CNGA2 subunit; cited from earlier work
[5] = 10 μM, construct CNGA2RE:A4RE:B1b
[6] = 10 μM, construct CNGA2RE:A4RE:B1bRE
[7] = 10 μM, construct CNGA2TM:A4RE:B1b

T1 sequence (Q00195 whole entry R538E): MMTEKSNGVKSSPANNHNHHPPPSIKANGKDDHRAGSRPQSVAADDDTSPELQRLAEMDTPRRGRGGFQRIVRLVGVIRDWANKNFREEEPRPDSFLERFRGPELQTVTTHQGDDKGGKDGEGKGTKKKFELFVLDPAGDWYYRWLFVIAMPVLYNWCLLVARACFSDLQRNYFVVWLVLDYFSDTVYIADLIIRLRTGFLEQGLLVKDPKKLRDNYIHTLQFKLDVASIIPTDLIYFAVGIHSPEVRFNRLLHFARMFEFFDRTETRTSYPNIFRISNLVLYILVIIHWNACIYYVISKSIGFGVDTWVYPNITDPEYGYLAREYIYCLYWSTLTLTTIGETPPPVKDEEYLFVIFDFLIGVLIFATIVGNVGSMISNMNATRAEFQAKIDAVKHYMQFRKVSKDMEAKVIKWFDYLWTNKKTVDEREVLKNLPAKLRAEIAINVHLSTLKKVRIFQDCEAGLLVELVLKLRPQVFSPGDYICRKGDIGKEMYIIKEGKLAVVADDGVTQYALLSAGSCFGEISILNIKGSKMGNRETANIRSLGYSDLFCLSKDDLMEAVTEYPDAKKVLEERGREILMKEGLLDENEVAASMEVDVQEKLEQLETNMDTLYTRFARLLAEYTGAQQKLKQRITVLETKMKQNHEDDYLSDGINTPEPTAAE
T1 sequence (Q64359 whole entry R430E): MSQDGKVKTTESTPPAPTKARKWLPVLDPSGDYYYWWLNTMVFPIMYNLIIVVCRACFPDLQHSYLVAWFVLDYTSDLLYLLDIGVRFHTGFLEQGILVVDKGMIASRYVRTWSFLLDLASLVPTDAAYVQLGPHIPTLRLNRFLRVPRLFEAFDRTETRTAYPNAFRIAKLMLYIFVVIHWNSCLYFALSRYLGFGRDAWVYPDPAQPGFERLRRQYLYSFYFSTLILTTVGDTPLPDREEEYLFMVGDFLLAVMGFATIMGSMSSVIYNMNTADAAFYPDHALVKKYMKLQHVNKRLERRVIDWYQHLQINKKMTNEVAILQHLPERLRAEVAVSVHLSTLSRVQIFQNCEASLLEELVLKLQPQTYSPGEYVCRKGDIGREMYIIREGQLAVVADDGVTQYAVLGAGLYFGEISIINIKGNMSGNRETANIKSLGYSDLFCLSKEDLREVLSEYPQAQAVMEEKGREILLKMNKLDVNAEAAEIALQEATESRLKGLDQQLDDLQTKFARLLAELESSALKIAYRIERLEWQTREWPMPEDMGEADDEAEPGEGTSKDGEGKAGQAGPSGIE
T1 sequence (A0A8I5ZN27 1-858 isoform A0A8I5ZN27-2, stated change not applied): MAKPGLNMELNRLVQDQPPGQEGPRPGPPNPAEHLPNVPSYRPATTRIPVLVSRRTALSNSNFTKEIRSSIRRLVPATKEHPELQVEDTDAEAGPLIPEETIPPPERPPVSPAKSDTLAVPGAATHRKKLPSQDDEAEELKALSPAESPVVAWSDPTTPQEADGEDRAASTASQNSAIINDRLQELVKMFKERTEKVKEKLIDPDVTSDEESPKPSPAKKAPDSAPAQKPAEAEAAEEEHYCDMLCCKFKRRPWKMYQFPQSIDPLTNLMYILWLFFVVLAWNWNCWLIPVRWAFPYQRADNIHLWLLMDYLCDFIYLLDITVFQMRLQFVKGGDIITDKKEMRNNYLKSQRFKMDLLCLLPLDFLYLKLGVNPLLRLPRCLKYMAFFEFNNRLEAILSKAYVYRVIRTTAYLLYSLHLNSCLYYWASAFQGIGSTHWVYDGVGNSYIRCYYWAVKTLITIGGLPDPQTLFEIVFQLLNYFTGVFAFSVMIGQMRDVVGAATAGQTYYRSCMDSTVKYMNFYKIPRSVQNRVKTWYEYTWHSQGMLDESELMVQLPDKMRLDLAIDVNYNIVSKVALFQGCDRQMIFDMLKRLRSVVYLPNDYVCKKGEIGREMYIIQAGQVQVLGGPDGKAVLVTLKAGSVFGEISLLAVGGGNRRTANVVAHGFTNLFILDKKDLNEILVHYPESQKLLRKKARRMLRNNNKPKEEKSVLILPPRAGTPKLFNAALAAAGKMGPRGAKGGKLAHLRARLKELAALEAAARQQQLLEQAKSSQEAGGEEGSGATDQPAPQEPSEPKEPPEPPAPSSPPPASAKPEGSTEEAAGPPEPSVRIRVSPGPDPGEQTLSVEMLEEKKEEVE
T2 sequence (Q00195 whole entry R538E): as the sequence (Q00195 whole entry R538E) above
T2 sequence (Q64359 whole entry R430E): as the sequence (Q64359 whole entry R430E) above
T2 sequence (A0A8I5ZN27 1-858 isoform A0A8I5ZN27-2 R657E): as the sequence (A0A8I5ZN27 1-858 isoform A0A8I5ZN27-2, stated change not applied) above, with R657E counted along it
T3 sequence (Q00195 whole entry T539M): as the sequence (Q00195 whole entry R538E) above, with E538R, T539M counted along it
T3 sequence (Q64359 whole entry R430E): as the sequence (Q64359 whole entry R430E) above
T3 sequence (A0A8I5ZN27 1-858 isoform A0A8I5ZN27-2, stated change not applied): as the sequence (A0A8I5ZN27 1-858 isoform A0A8I5ZN27-2, stated change not applied) above

| Compound | activation (I/Imax) (CNGA2RE:A4RE:B1b [1]; 10 μM fcGMP, normalized to current at 4 mM cGMP) [%] | binding to the CNGB1b subunit (in words) (CNGA2RE:A4RE:B1b [2]; 10 μM fcGMP, CNGB1b with CNGA4RE and CNGA2RE) | Ligand binding to CNGA4 (CNGA2RE:A4RE:B1b [2]; [5]) | Ligand binding to CNGB1b (CNGA2RE:A4RE:B1b [2]; [5]) | binding (in words) (CNGA2RE:A4RE:B1bRE; 10 μM fcGMP, CNGB1bRE with CNGA2RE and CNGA4RE) | Ligand binding to CNGA4 (CNGA2RE:A4RE:B1bRE; [6]) | Ligand binding to CNGB1b (CNGA2RE:A4RE:B1bRE; [6]) | binding to the CNGB1b subunit (in words) (CNGA2TM:A4RE:B1b; 10 μM fcGMP, CNGB1b with CNGA4RE and CNGA2TM) | Ligand binding to CNGA4 (CNGA2TM:A4RE:B1b; [7]) | Ligand binding to CNGB1b (CNGA2TM:A4RE:B1b; [7]) | activation ([3]; 10 μM fcGMP, homotetrameric CNGA2TM) | H1 (CNGA2RE:A4RE:B1b [1]; Hill coefficient of low affinity component, CNGA2RE:A4RE:B1b, +100 mV) | a (contribution of the high affinity component) (CNGA2RE:A4RE:B1b [1]; fraction, CNGA2RE:A4RE:B1b, Equation 2) | EC50 (CNGA2RE:A4RE:B1b [1]; high affinity component (action of CNGB1b), CNGA2RE:A4RE:B1b, Equation 2, +100 mV, read-out: EC50,h) [µM] | EC50 (CNGA2RE:A4RE:B1b [1]; low affinity component, CNGA2RE:A4RE:B1b, Equation 2, +100 mV, read-out: EC50,l) [µM] | maximum contribution of CNGB1b to channel activation (a) (CNGA2RE:A4RE:B1b [1]; of the maximum channel activity generated by all subunits, CNGA2RE:A4RE:B1b) | EC50 ([3]; CNGA2TM, Equation 1, ref Nache et al., 2012) [µM] | EC50 [4] [µM] |
| --- | --- | --- | --- | --- | --- | --- | --- | --- | --- | --- | --- | --- | --- | --- | --- | --- | --- | --- |
| 8-[DY-547]-AET-cGMP [fcGMP] | 1.6 ± 0.4 | robust binding | − | + | essentially diminished | − | − | robust binding | − | + | negligible activation |  |  |  |  |  |  |  |
| Nc1nc2c(ncn2[C@@H]2O[C@@H]3COP(=O)(O)O[C@H]3[C@H]2O)c(=O)[nH]1 [cGMP] |  |  |  |  |  |  |  |  |  |  |  | 1.2 | 0.07 | 3.6 | 178 | 7.2% and ~ 7% | 10.4 | 22.2 |
